Experimental data taken from patent publication US20250018049A1, “COMPOUNDS FOR DEGRADING CYCLIN-DEPENDENT KINASE 2 VIA UBIQUITIN PROTEOSOME PATHWAY” (NIKANG THERAPEUTICS, INC., priority 2020, published 2025).

Experiments:
Assay type in all cases: cell-based
CDK2 [1] = molecular target: T1, CDK2 (Homo sapiens, UniProt P24941); assay: NanoBRET CDK2 engagement assay; parameters: expressed in transfected cells; settings: OVCAR3 cells with stable CDK2-Luciferase vector, 24 hours treatment
How it was run: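 OVCAR3 cells stably expressing CDK2-luciferase, in Opti-MEM with 1% FBS, treated 24 h at 37° C with compound from 3 μM in ½-log steps to 0.3 nM; NanoBRET tracer present for final 2 h. Donor/acceptor emission read; engagement normalized to DMSO as 100% signal, IC50 by curve fit.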

CDK2 [2] = molecular target: T1, CDK2; assay: Phospho-Rb HTRF measurement in OVCAR3 cells (inhibition of CDK2); parameters: High-Throughput Measurement of Cellular Endogenous CDK2; endogenous in cells; host or cells: OVCAR3; settings: pRB(S807/811) assay, 24 h compound treatment
CDK2 [3] = molecular target: T1, CDK2; assay: CDK2 HTRF assay (cellular endogenous CDK2 level); parameters: High-Throughput Measurement of Cellular Endogenous CDK2; endogenous in cells; host or cells: OVCAR3; settings: OVCAR-3; OVCAR3 cells, 24 hours, 0.3 to 10,000 nM; read-out: max degradation of CDK2
Protocol: Effects of compounds on cellular CDK2 level can be monitored by a high-throughput HTRF assay or traditional Western Blot assay.
To determine half maximal degradation concentration (DC50) values of compounds, cellular CDK2 level was measured in 96-well format using HTRF total CDK2 cellular kit (Cat #64CDK2TPEG) from Cisbio.
On Day 1, OVCAR3 cells were seeded into 96-well tissue-culture treated plates at 20,000 cells/well in 200 μL and incubated overnight at 37° C. in CO2 atmosphere. On Day 2 cells were treated with compounds at concentration ranging from 0.3 to 10,000 nM using HP D300 digital dispenser. 24 hours after compound treatment, cell culture media was removed by flicking the plate and tapping the plate against clean paper towel. Immediately 30 μL 1× lysis buffer was supplemented from the kit and the plate was incubated at room temperature on shaker for 30 min. After homogenization by pipetting up and down, 8 μL cell lysate from 96-well cell culture plate was transferred to 384-well small volume white detection plate. 2 μL premixed detection solution was added and the plate was covered with sealer. To prepare the detection solution, d2 conjugated-CDK2 antibody and Eu-cryptate conjugated CDK2 antibody were diluted into detection buffer following manufacturer's instruction. Detection plates were incubated overnight at room temperature and read on ClarioStar (BMG Labtech) in TR-FRET mode (665 nM and 620 nM). The TR-FRET ratio (665 nM/620 nM) was plotted against the compound concentration and normalized to DMSO controls. Half maximal degradation concentration (DC50) values were calculated with a four-parameter logistic fit using GraphPad Prism (version 8; La Jolla, CA). FIG. 1 provides a dose-response curve of Compound 1 in Compound Table I in cellular CDK2 HTRF assay. IC50 in FIG. 1 is the same as DC50. Compounds 1, 13, 16, 22, 23, 28, 34, 35, 36, 37, 38, 39, 42, 48, 50, 51, 53, 54, 55, 56, 57, 58, 59, 60, 61, 62, 63, 65, 66, 68, 69, 70 were tested and max degradation of CDK2 observed was from about 35% to about 90%.

Structure (SMILES)	IC50 (CDK2 [1])	IC50 (CDK2 [2])	Dmax (CDK2 [3])
O=C1CCC(N2C(=O)c3cccc(NCCOCCOCCOCCOCCNS(=O)(=O)N4CCC(Nc5ncc6ccc(=O)n(C7CCCC7)c6n5)CC4)c3C2=O)C(=O)N1 (stereo not drawn) [compound 1, 4-((8-cyclopentyl-7-oxo-7,8-dihydro-pyrido[2,3-d]pyrimidin-2-yl)amino)-N-(14-((2-(2,6-dioxopiperidin-3-yl)-1,3-dioxoisoindolin-4-yl)amino)-3,6,9,12-tetraoxatetradecyl)piperidine-1-sulfonamide]	0.403 µM	0.44 µM	35 to 90%
O=C1CCC(N2C(=O)c3cc(F)c(N4CCN(Cc5cccc(S(=O)(=O)N6CCC(Nc7ncc8ccc(=O)n(C9CCCC9)c8n7)CC6)c5)CC4)cc3C2=O)C(=O)N1 (stereo not drawn) [Compound 48, 5-(4-(3-((4-((8-cyclopentyl-7-oxo-7,8-dihydro-pyrido[2,3-d]pyrimidin-2-yl)amino)piperidin-1-yl)sulfonyl)-benzyl)piperazin-1-yl)-2-(2,6-dioxo-piperidin-3-yl)-6-fluoroisoindoline-1,3-dione]	0.722 µM	0.131 µM	35 to 90%
O=C1CCC(N2Cc3cc(N4CC5(CCN(Cc6cccc(S(=O)(=O)N7CCC(Nc8ncc9ccc(=O)n(C%10CCCC%10)c9n8)CC7)c6)CC5)C4)ccc3C2=O)C(=O)N1 (stereo not drawn) [Compound 58, 3-(5-(7-(3-((4-((8-cyclopentyl-7-oxo-7,8-dihydropyrido[2,3-d]pyrimidin-2-yl)amino)-piperidin-1-yl)sulfonyl)benzyl)-2,7-diazaspiro-[3.5]nonan-2-yl)-1-oxoisoindolin-2-yl)piperidine-2,6-dione]	0.291 µM	0.155 µM	35 to 90%
O=C1CCC(N2C(=O)c3cc(F)c(N4CCN(Cc5cccc(S(=O)(=O)N6CC[C@H](Nc7ncc8ccc(=O)n(C9CCCC9)c8n7)[C@@H](F)C6)c5)CC4)cc3C2=O)C(=O)N1 (stereo partly drawn) [Compound 65, 5-(4-(3-(((3S,4S)-4-((8-cyclopentyl-7-oxo-7,8-dihydropyrido[2,3-d]pyrimidin-2-yl)amino)-3-fluoropiperidin-1-yl)sulfonyl)benzyl)piperazin-1-yl)-2-(2,6-dioxopiperidin-3-yl)-6-fluoro-isoindoline-1,3-dione]	1.75 µM	6.44 µM	35 to 90%
Cn1c(=O)n(C2CCC(=O)NC2=O)c2cccc(C#CCOC3CCN(CC4CCN(S(=O)(=O)N5CCC(Nc6ncc7ccc(=O)n(C8CCCC8)c7n6)CC5)CC4)CC3)c21 (stereo not drawn) [Compound 13, 3-(4-(3-((1-((1-((4-((8-cyclopentyl-7-oxo-7,8-dihydropyrido[2,3-d]pyrimidin-2-yl)amino)-piperidin-1-yl)sulfonyl)piperidin-4-yl)methyl)-piperidin-4-yl)oxy)prop-1-yn-1-yl)-3-methyl-2-oxo-2,3-dihydro-1H-benzo[d]imidazol-1-yl)-piperidine-2,6-dione]	0.292 µM	2.12 µM	35 to 90%

Results, then the compound that gave them:

IC50 (CDK2 [1])	IC50 (CDK2 [2])	Dmax (CDK2 [3])	Structure (SMILES)
0.149 µM	0.0318 µM	35 to 90%	O=C1CCC(N2Cc3cc(N4CC(N5CCN(c6cccc(S(=O)(=O)N7CCC(Nc8ncc9ccc(=O)n(C%10CCCC%10)c9n8)CC7)c6)CC5)C4)ccc3C2=O)C(=O)N1 (stereo not drawn) [Compound 69, 3-(5-(3-(4-(3-((4-((8-cyclopentyl-7-oxo-7,8-dihydropyrido[2,3-d]pyrimidin-2-yl)amino)-piperidin-1-yl)sulfonyl)phenyl)piperazin-1-yl)azetidin-1-yl)-1-oxoisoindolin-2-yl)piperidine-2,6-dione]
0.139 µM	71.1 µM	35 to 90%	O=C1CCC(N2Cc3cc(C4CCN(CC5CCN(c6cccc(S(=O)(=O)N7CCC(Nc8ncc9ccc(=O)n(C%10CCCC%10)c9n8)CC7)c6)CC5)CC4)ccc3C2=O)C(=O)N1 (stereo not drawn) [Compound 35, 3-(5-(1-((1-(3-((4-((8-cyclopentyl-7-oxo-7,8-dihydropyrido[2,3-d]pyrimidin-2-yl)amino)-piperidin-1-yl)sulfonyl)phenyl)piperidin-4-yl)-methyl)piperidin-4-yl)-1-oxoisoindolin-2-yl)piperidine-2,6-dione]
0.212 µM	0.0257 µM	35 to 90%	O=C1CCC(N2Cc3cc(N4CCN(CC5CCN(c6cccc(S(=O)(=O)N7CCC(Nc8ncc9ccc(=O)n(C%10CCCC%10)c9n8)CC7)c6)CC5)CC4)ccc3C2=O)C(=O)N1 (stereo not drawn) [Compound 36, 3-(5-(4-((1-(3-((4-((8-cyclopentyl-7-oxo-7,8-dihydropyrido[2,3-d]pyrimidin-2-yl)amino)-piperidin-1-yl)sulfonyl)phenyl)piperidin-4-yl)-methyl)piperazin-1-yl)-1-oxoisoindolin-2-yl)-piperidine-2,6-dione]
0.289 µM	0.049 µM	35 to 90%	O=C1CCC(N2Cc3cc(N4CCN(Cc5cccc(S(=O)(=O)N6CCC(Nc7ncc8ccc(=O)n(C9CCCC9)c8n7)CC6)c5)CC4)ccc3C2=O)C(=O)N1 (stereo not drawn) [Compound 50, 3-(5-(4-(3-((4-((8-cyclopentyl-7-oxo-7,8-dihydropyrido[2,3-d]pyrimidin-2-yl)-amino)-piperidin-1-yl)sulfonyl)benzyl)-piperazin-1-yl)-1-oxoisoindolin-2-yl)piperidine-2,6-dione]
0.19 µM	0.0257 µM	35 to 90%	O=C1CCC(N2Cc3cc(C4CN(Cc5cccc(S(=O)(=O)N6CCC(Nc7ncc8ccc(=O)n(C9CCCC9)c8n7)CC6)c5)C4)ccc3C2=O)C(=O)N1 (stereo not drawn) [Compound 37, 3-(5-(1-(3-((4-((8-cyclopentyl-7-oxo-7,8-dihydropyrido[2,3-d]pyrimidin-2-yl)amino)-piperidin-1-yl)sulfonyl)benzyl)azetidin-3-yl)-1-oxoisoindolin-2-yl)piperidine-2,6-dione]
0.169 µM	0.0496 µM	35 to 90%	O=C1CCC(N2Cc3cc(N4CCC5(CC4)CN(Cc4cccc(S(=O)(=O)N6CCC(Nc7ncc8ccc(=O)n(C9CCCC9)c8n7)CC6)c4)C5)ccc3C2=O)C(=O)N1 (stereo not drawn) [Compound 57, 3-(5-(2-(3-((4-((8-cyclopentyl-7-oxo-7,8-dihydro-pyrido[2,3-d]pyrimidin-2-yl)amino)piperidin-1-yl)sulfonyl)benzyl)-2,7-diazaspiro[3.5]nonan-7-yl)-1-oxoisoindolin-2-yl)piperidine-2,6-dione]
0.284 µM	0.0218 µM	35 to 90%	O=C1CCC(N2Cc3cc(N4CC5(CN(Cc6cccc(S(=O)(=O)N7CCC(Nc8ncc9ccc(=O)n(C%10%11CC(C%10)C%11)c9n8)CC7)c6)C5)C4)ccc3C2=O)C(=O)N1 (stereo not drawn) [Compound 62, 3-(5-(6-(3-((4-((8-(bicyclo[1.1.1]pentan-1-yl)-7-oxo-7,8-dihydropyrido[2,3-d]pyrimidin-2-yl)-amino)piperidin-1-yl)sulfonyl)benzyl)-2,6-diazaspiro[3.3]heptan-2-yl)-1-oxoisoindolin-2-yl)-piperidine-2,6-dione]
